These are literature values, as cited in patent US20080167477A1, “NOVEL POLYMORPHIC FORMS OF […] AND PROCESS FOR PREPARING THE SAME” (MATRIX LABORATORIES LIMITED, priority 2007, published 2008).

For the series the following is noted: compared to the free base of carvedilol; disclosed in WO 2004/002419.

For `COc1ccccc1OCCNCC(O)COc1cccc2[nH]c3ccccc3c12.O=P(O)(O)O` (stereo not shown) [carvedilol dihydrogen phosphate], the solubility result was “higher solubility when compared to the free base of carvedilol”.
